Experimental data as given in paper PMC10458253, “Unraveling the In Vitro Toxicity Profile of Psychedelic 2C Phenethylamines and Their N-Benzylphenethylamine (NBOMe) Analogues” (Pharmaceuticals, 2023).

Tests used:
Format in all cases: cell-based
[1] = test system: differentiated SH-SY5Y cells; experiment: Intracellular total glutathione (DTNB-GSH recycling assay); settings: 24 h
Procedure: Total GSH was quantified through the DTNB-GSH recycling assay. Briefly, GSH is oxidized by 5,5′-dithiobis (2-nitrobenzoic acid) (DTNB) producing 5-thio-2-nitrobenzoic acid (TNB) and a glutathione adduct of GSH (GS-TNB). In the presence of NADPH, GS-TNB is reduced by glutathione reductase to 2GSH (recycled). The GSH concentration in the samples is thus proportional to TNB formation, which is measurable at 415 nm.
Intracellular total glutathione (GSH) was measured through the DTNB-GSH recycling assay. […]
The acidic samples and standards (GSH standards prepared in 5% HClO4) were neutralized with ice-cold 0.76 M KHCO3 (1:1) and centrifuged (13,000× g, 10 min at 4 °C). Subsequently, 100 µL of the supernatants were transferred to a 96-well plate, followed by the addition of 65 µL of an extemporaneous reagent solution (3.96 mM DTNB and 0.68 mM NADPH prepared in a 7.5 pH phosphate buffer: 71.5 mM Na2HPO4, 71.5 mM NaH2PO4, and 0.63 mM EDTA) and the plates were incubated for 15 min in a multi-well plate reader (PowerWaveX BioTek Instruments, Winooski, VT, USA) at 30 °C. At the end of the incubation period, 40 µL of a 10 U/mL glutathione reductase (prepared in phosphate buffer) solution was added and the absorbance was then measured, for 3 min, at 415 nm, in kinetic mode to follow the TNB formation. […]

[2] = test system: differentiated SH-SY5Y cells; experiment: Intracellular ATP (luciferin-luciferase bioluminescence assay); settings: 24 h, 500 μM
Procedure: Intracellular ATP levels were determined, as previously described, through a bioluminescence reaction with luciferase, which catalyzes the formation of light from ATP and luciferin.
Intracellular adenosine triphosphate (ATP) was quantified through the bioluminescent D-luciferin-luciferase assay. The samples used for the intracellular ATP quantification were prepared as described for the “Intracellular Total Glutathione Quantification” assay. The acidic samples and standards (ATP standards prepared in 5% HClO4) were neutralized with ice-cold 0.76 M KHCO3 (1:1) and centrifuged (13,000× g, 10 min at 4 °C). Afterwards, 75 µL of the supernatants were transferred to a white opaque 96-well plate, followed by the addition of 75 µL of luciferin-luciferase solution (0.15 mM luciferin and 3 × 10^6 light unit’s luciferase/mL prepared in a 7.6 pH Tris-Glycine buffer solution: 1 mM Trizma; 10 mM MgSO4; 50 mM glycine; 0.55 mM EDTA and 1% BSA), protected from light. The samples’ bioluminescence (560 nm) was immediately measured in a multi-well plate reader (PowerWaveX BioTek Instruments, Winooski, VT, USA). The ATP content in the samples was normalized to the protein content (as previously described in “Intracellular Reduced Glutathione Quantification”) and the results were expressed as a percentage of control cells. At least four independent experiments were performed, in duplicate.

[3] = test system: differentiated SH-SY5Y cells; experiment: Mitochondrial membrane potential (JC-1 dye); settings: 24 h, 0–500 µM, vs control
Procedure: Mitochondrial transmembrane potential (Δѱm) was determined using the JC-1 dye, which can selectively enter the mitochondria and reversibly change the dye’s fluorescent properties depending on the Δѱm. At high Δѱm conditions—representative of healthy cells—JC-1 forms J-aggregates generating red fluorescence. At low Δѱm conditions—representative of unhealthy or apoptotic cells—JC-1 is predominantly a monomer generating green fluorescence.
The mitochondrial membrane potential was evaluated by using the JC-1 probe. SH-SY5Y cells were seeded and differentiated in 48-well plates and, 6 days after seeding, the cells were exposed to the six drugs (0–500 µM) for 24 h, at 37 °C, in a 5% CO2–95% air atmosphere. Subsequently, the medium was removed, and the cells were incubated with 20 µM JC-1 for 30 min, protected from light, at 37 °C, in a 5% CO2–95% air atmosphere. At the end of the incubation period, the cells were centrifuged (300× g, 5 min at room temperature) and washed (warm HBSS with calcium and magnesium) twice. The fluorescence was then measured in a multi-well plate reader: at 535 nm excitation and 595 nm emission wavelengths for J-aggregates; and at 485 nm excitation and 535 nm emission wavelengths for JC-1 monomers (PowerWaveX BioTek Instruments, USA). […] The results were calculated as red/green fluorescence intensity ratios and expressed as percentages of control cells. […]

Row | SMILES | total GSH intracellular levels ([1]; 250 μM) | ATP intracellular levels [2] | JC-1 red/green ratio (mitochondrial membrane potential) [3] | total GSH intracellular levels ([1]; 10 μM)
1 | COc1cc(CCN)c(OC)cc1Br [2C-B, 4-Bromo-2,5-dimethoxy-β-phenethylamine] | no significant alterations |  |  | 
2 | COc1cc([N+](=O)[O-])c(OC)cc1CCN [2C-N, 2,5-dimethoxy-4-nitrophenethylamine] |  | about 60 % of control cells |  | 
3 | COc1cc(CCNCc2ccccc2OC)c(OC)cc1Br [25B-NBOMe, 4-Bromo-2,5-dimethoxy-N-(2-methoxybenzyl)-β-phenethylamine] |  | completely depleted intracellular ATP levels | the most operative drug in inducing mitochondrial membrane depolarization | drastically reduced the total GSH levels
